Structures can show the parent of a compound that is named as a salt.
Experiments:
MS strain of HSV-2 = test: Primary genital HSV-2 infection of guinea pigs, topical treatment; assay type: in vivo; conditions: ACV as 5%
Method: The antiviral activity of several compounds in a primary genital HSV-2 infection of guinea pigs was tested. The experiments were placebo-controlled and uninfected animals were treated with each of the preparations to assess skin irritation. Groups treated with 5% Acyclovir were included as positive controls.
Virus and Viral Inoculation. The MS strain of HSV-2 was utilized to infect animals. Female Hartley strain guinea pigs, Charles River Breeding Laboratories, Kingston, NY, weighing 250 to 300 g were inoculated intravaginally with 1.4 x 10^5 plaque forming units of HSV-2 one hour after being swabbed for the removal of vaginal secretions.
Treatment of Guinea Pigs. Groups of ten infected guinea pigs were treated topically, 0.1 ml intravaginally and 0.1 ml on external genital skin, three times daily, approximately every eight hours, for seven days, beginning either 6 hr or 48 hr after HSV inoculation. Groups of three uninfected animals were used to assess toxicity of each preparation.
Simple Collection and Virus Assays. To determine the effect of treatment on vaginal virus replication, swabs of vaginal secretions were obtained on days 1, 3, 5, 7 and 10 after HSV-2 inoculation, placed in a tube containing 2.0 ml of media, vortexed and frozen at -70°C until titrated for HSV-2. When all samples were collected, they were thawed, diluted serially and HSV-2 titers determined using a microtiter CPE assay in rabbit kidney cells. Mean peak virus titers and areas under the virus titer-day curves were calculated and analyzed.
Scoring of External Genital Lesions. To determine the effect of therapy on the development and spread of external genital lesions, lesion severity was scored on a 0-5+ scale through the primary infection (21 days). Mean peak lesion scores and the area under the lesion score-day curves were calculated and analyzed.
Evaluation of Efficacy. The number of animals infected over the number inoculated, lesion score-day areas and virus titer-day areas under the curve, peak lesion scores and peak virus titers between untreated and placebo-treated or placebo-treated and drug-treated animals were compared using the Mann-Whitney U rank sum test. A p-value of 0.05 or less was considered significant.
The base formulation is as defined for the preferred embodiment of the composition for enhancing […] of viral lesions, but without SLS or anesthetic. Acyclovir (ACV) was used as a positive control (i.e., having antiviral activity). Placebo (PBS) treated animals were compared with an untreated control animal. 2A was compared with the untreated animals and placebo-treated animals. ACV groups were compared to the placebo-treated group. All others were compared to 2A.

HSV-2 [1] = test: Inactivation studies: direct inactivation of HSV-2; design: species or system herpes simplex virus type-2; conditions: for concentrations tested at which the compound does not directly inactivate HSV-2: 30 minutes at room temperature, up to highest concentration tested
Method: (§1) A clinical isolate from a genital lesion of Herpes simplex virus, type (HSV-2), was used.
(§2) Stocks of viruses were grown by infecting MRC-5 cells at multiplicity of 0.01 plaque forming units (PFU) per cell and harvested in maintenance medium. Virus was harvested by three cycles of freezing at -70°C and thawing, followed by centrifugation at 1000 x g at 4°C for 15 minutes to remove cell debris. Resulting virus stocks were aliquoted and frozen at -70°C.
To determine if a test compound directly inactivates HSV-2, 0.5 ml of serial dilutions of the compound to be tested was mixed with 0.5 ml of stock HSV-2 (titer = […]) and incubated at room temperature for 30 minutes. After 30 minutes, the compound-virus mixture was diluted 10,000 fold in maintenance medium and virus recovery was determined by inoculating MRC-5 cells. The cells were graded for cytopathic effect after 24 hr, 48 hr, and 72 hr.

HSV-2 [2] = test: Antiviral studies: inhibition of HSV-2 replication in MRC-5 cells (virus yield); assay type: cell-based, herpes simplex virus type-2
Method: as §1, §2
Antiviral activity, i.e., the ability of the compound to inhibit infection or replication of virus in cells, was measured by infecting confluent monolayers of MRC-5 cells in 12 x 100 mm culture tubes at a multiplicity of infection (MOI) of 3.0 plaque forming units (PFU) per cell of HSV-2 by removing the maintenance medium, washing the monolayers three times with phosphate buffered saline (PBS), and adding 0.1 ml of […] suspended in PBS. The multiplicity of infection was calculated by counting the number of viable cells in a duplicate tube and diluting the stock virus to produce a viral inoculum in a volume of 0.1 ml which contained three times the PFUs as the number of cells counted. After a 60 minute absorption period, the inoculum was removed and 4 mls of test compound at appropriate concentrations in maintenance medium or maintenance medium (control) was added. The tubes were incubated at 37°C for an additional 23 hours. At 24 hours post-infection, the medium was removed and the monolayers were washed twice with PBS and frozen and thawed 3 times in 1 ml of maintenance medium. Virus yields were determined by serial end-point titrations in 96-well tissue culture plates containing MRC-5 cells. All experiments were tested in triplicate. 50% end-points were calculated and titers were expressed in TCID 50 units. Antiviral effect was determined by subtracting the difference between the TCID 50s of the test compound and from the TCID 50s of HSV-2 virus stock titrated in the same experiment and calculated in percentages.

MRC-5 cells = conditions: for concentrations exhibiting significant cytotoxicity: 1440 min
Vero cells = test: Cytotoxicity assay in Vero cells; assay type: cell-based, green monkey
Method: A continuous line of human embryo lung cells (MRC-5) were grown in Eagle's minimal essential medium (MEM) in Earle's salts supplemented with 2 mM L-glutamine, […] gentamicin, 0.25 mg/ml amphotericin B (Fungisone) ad 10% heat-inactivated fetal calf serum (growth medium). Cells were grown at 37°C in a humidified 5% CO2 atmosphere or in closed flasks. Maintenance medium was the same basic composition, except the concentration of fetal calf serum was 2%. Vero cells (continuous line of green monkey kidney cells) were grown in the same manner as MRC-5 cells.
Cytotoxicity assays were performed in MRC-5 cells and in Vero cells. The test compound was dissolved in maintenance medium at selected concentrations and inoculated onto MRC-5 or Vero cells in 96 well tissue culture plates. Each concentration was inoculated in triplicate. The plates were incubated at 37°C in 5% CO2 and graded for cytotoxicity at 24,48 and 72 hours after inoculation. The highest concentration of compound showing 50% cytotoxicity after 72 hours was designated the end point.

Nc1nc2c(ncn2COCCO)c(=O)[nH]1 [ACV, Acyclovir]
virus titer-day area under the curve (AUC) (MS strain of HSV-2; therapy given 6 hr after viral inoculation, vs placebo, p 0.05): significantly reduced | mean peak virus titer (MS strain of HSV-2; therapy given 6 hr after viral inoculation, vs placebo, p <0.01): significantly reduced | lesion development (MS strain of HSV-2; therapy initiated 6 hr following HSV-2 inoculation, P <0.05 or less): significantly decreased | mean peak lesion score (MS strain of HSV-2; therapy initiated 6 hr following inoculation, P <0.001): reduced

O=C(O)c1cccnc1 [Niacin]
concentrations tested at which the compound does not directly inactivate HSV-2 (HSV-2 [1]): up to 0.25% | inhibition of the replication of HSV-2 / antiviral activity (HSV-2 [2]; concentration not given): does not inhibit | concentrations non-toxic in MRC-5 cells (MRC-5 cells; human): ≤ 0.25%

CCN(CC)CCOC(=O)c1ccc(N)cc1 [Procaine HCl, Procaine hydrochloride]
concentrations showing significant toxicity (Vero cells; monkey): above 2.0% | concentrations tested at which the compound does not directly inactivate HSV-2 (HSV-2 [1]): up to 4% | concentrations unable to inhibit the replication of HSV-2 (HSV-2 [2]; MOI 3.0, 24 hours post-infection, up to stated concentration): up to 2% | inhibition of the replication of HSV-2 / antiviral activity (HSV-2 [2]; concentration not given): does not | concentrations exhibiting significant cytotoxicity (MRC-5 cells; human): above 0.25%

CCCCCCCCCCCCOS(=O)(=O)O [SLS, sodium lauryl (or dodecyl) sulfate]
direct inactivation of HSV-2 (HSV-2 [1]; concentration of 0.00032%): No inactivation | inhibition of viral replication (HSV-2 [2]; 0.0013%): does not inhibit | inhibition of viral replication (HSV-2 [2]; 0.0025%): does not inhibit | concentrations highly toxic to MRC-5 cells (MRC-5 cells; MRC-5 cells, time not stated): above 0.0025%

CCCCNc1ccc(C(=O)OCCN(C)C)cc1 [Tetracaine HCl]
significant toxicity in Vero cells (Vero cells; Vero cells, result in words): not in Vero cells | concentrations tested at which the compound does not directly inactivate HSV-2 (HSV-2 [1]): up to 2% | inhibition of the replication of HSV-2 (HSV-2 [2]; 0.25%): partially inhibited | inhibition of the replication of HSV-2 / antiviral activity (HSV-2 [2]; 0.5%, HCl): partially inhibited | inhibition of the replication of HSV-2 / antiviral activity (HSV-2 [2]; 0.5%, listed as tetracaine HCl, HCl): some antiviral activity | concentrations exhibiting significant cytotoxicity (MRC-5 cells; human): above 0.03%
